Patent US6113907A, “Pharmaceutical grade St. John's Wort” (priority 1997, dated 2000)
Several values for one entry are separate records, joined by “and”; a condition that tells them apart may be missing. Identical values can stand only once. Counter-ions that a name gives are not always drawn. Like-named read-outs stand apart in the source and are kept apart here.

What was measured:
serotonin transporter [1] = target: T1, serotonin transporter (Rattus norvegicus, UniProt P31652); conditions: cited from earlier work
T1 construct: Cerebral cortical membranes derived from male Wistar rats; from tissue; host or cells: cerebral cortical membranes of male Wistar rats
T1 sequence (P31652 whole entry): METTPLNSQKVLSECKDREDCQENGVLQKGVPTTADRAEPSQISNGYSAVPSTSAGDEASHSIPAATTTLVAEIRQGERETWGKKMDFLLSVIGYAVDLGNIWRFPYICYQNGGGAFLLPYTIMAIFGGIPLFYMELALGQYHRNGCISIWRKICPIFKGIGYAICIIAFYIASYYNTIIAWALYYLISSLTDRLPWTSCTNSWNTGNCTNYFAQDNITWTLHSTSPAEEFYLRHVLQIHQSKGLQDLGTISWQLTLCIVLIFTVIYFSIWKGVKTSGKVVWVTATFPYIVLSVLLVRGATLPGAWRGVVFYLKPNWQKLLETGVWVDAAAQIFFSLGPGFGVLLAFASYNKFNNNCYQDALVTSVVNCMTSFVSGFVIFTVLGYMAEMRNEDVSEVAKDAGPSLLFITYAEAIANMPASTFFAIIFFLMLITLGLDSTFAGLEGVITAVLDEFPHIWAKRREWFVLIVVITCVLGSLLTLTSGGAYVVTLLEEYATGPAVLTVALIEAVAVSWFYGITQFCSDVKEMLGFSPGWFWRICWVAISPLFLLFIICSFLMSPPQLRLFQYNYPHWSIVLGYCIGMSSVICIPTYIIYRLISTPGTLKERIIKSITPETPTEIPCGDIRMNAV

[2] = oil preparations, exposed to light; cited from earlier work
bacteria, fungi = conditions: hyperforin, adhyperforin: dilutions of 1:400 or 1:200; cited from earlier work
serotonin transporter [3] = target: T1, serotonin transporter; test: serotonin transporter assay, [125I]-RTI-121, rat cerebral cortical membranes; format: binding
GABAA receptor = conditions: read-out: Ki(nM) GABAA reference compounds; cited from earlier work
monoamine oxidase B [4] = conditions: reference compounds; read-out: inhibition of monoamine oxidase B IC50; cited from earlier work
[5] = target: glutamate receptor, NMDA agonist site; conditions: cited from earlier work
Monoamine Oxidase A = conditions: read-out: Inhibition of Monoamine Oxidase A Activity IC50; cited from earlier work
[6] = tested on: muscarinic receptor for the central nervous system; test: muscarinic receptor for the central nervous system (M1 Central), [3H] QNB, rat cortical membranes; format: binding; conditions: 10^-4; 100 µM
Method: Fourteen additional bioassays were preformed on either extracts, fractions or reference compounds for this botanical. To measure inhibition of [^3 H] PK11195 to the benzodiazepine receptor (BDZ) a partially purified receptor preparation was made from rat kidney membranes. The final radioactive ligand concentration was 1 nM and non-specific binding was measured using 200 nM cold PK11195. The substances, receptor and ligand were reacted in 50 mM Tris-HCL (pH 7.7) at 0-4° C. for 60 minutes. The reaction was terminated by rapid filtration of the samples through glass fiber filters. […] The inhibition of [^3 H] pinrenzepine to the muscarinic M1 receptor (M1) by the substances was measured using a partially purified receptor from bovine striatal membranes. The final hot ligand concentration was 1 nM and non-specific binding was determined in the presence of 100 nM atropine. […] The reactions were terminated by rapid vacuum filtration of the reaction mixture through glass fiber filters. […] To assay for biological activity for the muscarinic receptor for the central nervous system, receptor was partially purified from rat cortical membranes. […] Non-specific binding was determined in the presence of 100 nM atropine. […] Non-specific binding was determined using 1 mM NMDA. […] Non-specific binding was determined using 100 μM AMPA.

monoamine oxidase B [7] = test: MAO-B enzyme activity, rat liver mitochondrial fraction, [3H]dopamine; format: biochemical; conditions: read-out: MAOB (concentration)
Method: MAO-B enzyme activity is assayed in a mitochondrial fraction isolated from rat liver by differential centrifugation. […] Following 20 minutes incubation at 37° C., the reaction is terminated by the addition of 5% HCl. The radioactivity of [^3 H]dopamine in an extraction was determined.

adenosine receptor = adenosine receptor non-selective (ADNS), [3H] NECA, bovine striatal membranes; format: binding; conditions: for ADNS: 10^-4, 60 min, 100 µM
Method: To determine the inhibitory activity of the substances for the dopamine receptor (dp) the following assay was preformed. A partial receptor preparation was prepared from bovine striatal membranes using [^3 H] spiperone as the ligand at a final concentration of 0.3 nM. To determine non-specific binding cold spiperone was tested at 1 μM. The reactions were carried out in 50 mM Tris-HCl (pH 7.7) containing 120 mM NaCl, 5 mM KCl, 2 mM CaCl2 and 1 mM MgCl2 at 37° C. for 60 minutes. […] The inhibitory properties of the substances for binding of ligand to the adenosine receptor (ADNS) was measured using a partially purified receptor preparation made from bovine striatal membranes. The radioligand used was [^3 H] 5'-N-ethylcarboxyamidoadenosine (NECA) at a final ligand concentration of 4 nM. Non-specific binding was determined in the presence of 10 μM NECA. The reactions were carried out in 50 mM Tris-HCL (pH 7.7) for 60 minutes at 25° C. […] To measure the inhibitory activity of the substances for the opiate receptor (Opiate) receptor was partially purified from rat forebrains. [^3 H] naloxone at 1 nM as the ligand used. Non-specific binding was determined in the presence of 1 μM of naloxone. The assays were carried out in 50 mM Tris-HCl (pH 7.4) at 25° C. for 90 minutes. […] The neuronal nicotinic receptor (Nicotinic Neuronal) was assayed using receptors partially purified from rat cortical membranes. The radioligand used was [^3 H] N-methylcarbamylcholine iodide at a final ligand concentration of 5 nM. Non-specific binding was determined in the presence of 1 μM nicotine sulfate. The assay reactions were carried out in 50 mM Tris-HCl (pH 7.4) containing 120 mM NaCl, 5 mM KCl, 2 mM CaCl2, 1 mM MgCl2, and 3 μM atropine sulfate at 4° C. for 60 minutes. […] To determine how the substances inhibit the corticotropin releasing factor (CRF) partially purified receptor from rat cortical membranes was used as the receptor preparation. […] Tyr-° CRF at a final ligand concentration of 0.1 nM. Non-specific binding was determined in the presence of 1 μM Tyr-° CRF. The reactions were carried out in 50 mM HEPES containing 10 mM MgCl2, 2 mM EGTA, 0.12 TIU/ml aprotinin and 0.3% BSA at 25° C. for 120 minutes. The reaction is terminated by centrifugation in a Sorvall centrifuge for 15 minutes at 4° C.

MAOA = target: T2, MAOA (Rattus norvegicus, UniProt P21396); test: MAOA enzymatic activity, rat liver mitochondrial membranes, [14C] serotonin; format: biochemical; set-up: using rat liver mitochondrial membranes as a partially purified enzyme source; from tissue; host or cells: rat liver mitochondrial membranes
T2 sequence (P21396 1-526): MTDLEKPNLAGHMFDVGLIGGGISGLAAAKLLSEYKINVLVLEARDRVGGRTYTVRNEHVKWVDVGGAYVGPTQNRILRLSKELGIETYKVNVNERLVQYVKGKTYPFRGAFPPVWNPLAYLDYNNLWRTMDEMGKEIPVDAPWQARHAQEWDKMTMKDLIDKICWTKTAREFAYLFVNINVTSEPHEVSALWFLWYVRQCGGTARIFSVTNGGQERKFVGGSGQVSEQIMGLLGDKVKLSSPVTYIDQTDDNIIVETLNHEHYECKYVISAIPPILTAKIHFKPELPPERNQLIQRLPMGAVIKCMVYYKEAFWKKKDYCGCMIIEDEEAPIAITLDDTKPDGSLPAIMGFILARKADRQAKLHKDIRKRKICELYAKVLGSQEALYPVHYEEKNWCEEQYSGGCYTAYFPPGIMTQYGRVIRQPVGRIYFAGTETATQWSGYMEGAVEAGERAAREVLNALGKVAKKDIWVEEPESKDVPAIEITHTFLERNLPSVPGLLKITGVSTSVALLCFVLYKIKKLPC
Method: The inhibition of MAOA enzymatic activity (MAOA) was determined using rat liver mitochondrial membranes as a partially purified enzyme source. […] The reaction involves the conversion of the substrate to [^14 C] 5-hydroxyl indoleacetaldehyde+NH4^+. In brief, the enzyme is preincubated with the substances and the subtype specific blocker deprenyl (at 300 nM) for 60 minutes at 37° C. in 100 mM KPO4 (pH 7.2). Substrate is added and incubated for an additional 10 minutes. The reaction is terminated by the addition of 0.5 ml of 2M citric acid. […] Nitric oxide synthetase activity was measured using a binding assay (NOS). The receptors were made by partial purification of material from rat brain membranes. The radioligand used was [^3 H] L-N^G -Nitro-Arginine (NOARG) at a final concentration of 5 nM. Non-specific binding was determined using 100 μM of NOARG. The assay reactions were carried out in 50 mM Tris-HCl (pH 7.4) for 60 minutes at 25° C.

β-adrenergic receptors = conditions: rat frontal cortex, subchronic (250 mg/kg for 2 weeks; imipramine similar doses); cited from earlier work
murine cytomegalovirus = conditions: cited from earlier work
herpes simplex = conditions: cited from earlier work
[8] = tested on: human immunodeficiency virus type 1 (HIV-1); conditions: cited from earlier work
[9] = tested on: equine infectious anemia virus; conditions: cited from earlier work
protein kinase C = conditions: cited from earlier work
Sindbis virus = conditions: cited from earlier work
stability = format: physicochemical; conditions: our data
From the text: Some botanicals, such as St. John's Wort, are both temperature and light sensitive. For this type of botanical the material should be dry packed with a refrigerant or shipped under refrigeration and protected from light and air. […] Stability (in absence of air) was increased to six months in a preparation extracted with ethanol.
Phloroglucinola include hyperforin (prenylated derivative of phloroglucinol), adhyperforin (similar to the bitter principle of hops, adhumulone).

In the case of `O=[N+]([O-])c1ccc2nc(N3CCNCC3)ccc2c1` [6-NO-Quipazine], the IC50 (serotonin transporter [1]; Reference Data) is given as 3400 nM and the nH (serotonin transporter [1]; Reference Data) is given as 0.7400.

For `CCC(C)C(=O)[C@]12C(=O)[C@](CC=C(C)C)(C[C@H](CC=C(C)C)[C@@]1(C)CCC=C(C)C)C(=O)C(CC=C(C)C)=C2O` (stereo partly shown) [Adhyperforin, adhyperforin], the degradation time [2] is listed as 14 days.

In the case of `CC(C)=CCCC1(C)C(CC=C(C)C)CC2(CC=C(C)C)C(=O)C(CC=C(C)C)=C(O)C1(C(=O)C(C)C)C2=O` (stereo not shown) [Hyperforin, hyperforin], the “antibacterial / antifungal / antibiotic effect” value (bacteria, fungi) is listed as “antibiotic effect greater than that of sulfonilamide” and the degradation time [2] is listed as 14 days.

For `O=c1c(O[C@@H]2O[C@H](CO)[C@H](O)[C@H](O)[C@H]2O)c(-c2ccc(O)c(O)c2)oc2cc(O)cc(O)c12` [Hyperoside, hyperoside], the “5-HT Reuptake (Table 8, words)” value (serotonin transporter [3]) was “Negative”.

In the case of `O=C(O)C1=CCNCC1` [Isoguvacine], the Ki (GABAA receptor) is listed as 9.5 nM.

For `O=c1c2cc(O)c(O)cc2oc2cc(O)c([C@@H]3O[C@H](CO)[C@@H](O)[C@H](O)[C@H]3O)c(O)c12` [Magniferin, mangiferin], the “5-HT Reuptake (Table 8, words)” value (serotonin transporter [3]) was “Negative”.

For `NCc1cc(=O)[nH]o1` [Muscimol], the Ki (GABAA receptor) is listed as 4.4 nM.

In the case of `NCCNC(=O)c1cccc(I)c1` [N-(2-aminoethyl)-3-iodobenzamide hydrochloride], the IC50 (monoamine oxidase B [4]) is listed as 1700 nM.

For `CN[C@H](CC(=O)O)C(=O)O` [NMDA, N-methyl-D-aspartic acid], the Ki ([5]; read-out: Ki(nM) NMDA reference compounds) is given as 9300 nM.

In the case of `Cc1ccc2c(c1)c1c3n2CCNC3CCC1` (stereo not shown) [Pirlindole Mesylate], the IC50 (Monoamine Oxidase A) is given as 16 nM.

In the case of `O=c1c(O)c(-c2ccc(O)c(O)c2)oc2cc(O)cc(O)c12` [Quercetin, quercetin], the “5-HT Reuptake (Table 8, words)” value (serotonin transporter [3]) is reported as “Negative”, the “M1 Central” value [6] is reported as 27% and the IC50 (monoamine oxidase B [7]) is reported as 2400 nM. The ADNS (adenosine receptor) was 45% and 27%, the “MAOA (Table 8, words)” value (MAOA) was “verified the MAOA activity” and the IC50 (MAOA; read-out: MAOA (concentration)) was 8200 nM.

For `C[C@@H]1O[C@@H](Oc2c(-c3ccc(O)c(O)c3)oc3cc(O)cc(O)c3c2=O)[C@H](O)[C@H](O)[C@H]1O` [Quercitrin, quercitrin], the “5-HT Reuptake (Table 8, words)” value (serotonin transporter [3]) was “Negative”, the inhibition at 100 µM (serotonin transporter [3]; 10^-4, read-out: Sero) was 39% and the inhibition at 100 µM (serotonin transporter [3]; 10^-4 M, read-out: Sero % inhibition (PharmaPrint range)) was 40 ± 20%. The ADNS (adenosine receptor) was 45% and the “AD,NS % inhibition (PharmaPrint range)” value (adenosine receptor; 10^-4 M) was 45 ± 20%.

For `c1ccc2nc(N3CCNCC3)ccc2c1` [Quipazine maleate], the nH (serotonin transporter [1]; Reference Data) is given as 0.8550.

In the case of `C[C@@H]1O[C@@H](OC[C@H]2O[C@@H](Oc3c(-c4ccc(O)c(O)c4)oc4cc(O)cc(O)c4c3=O)[C@H](O)[C@@H](O)[C@@H]2O)[C@H](O)[C@H](O)[C@H]1O` [Rutin, rutin], the “5-HT Reuptake (Table 8, words)” value (serotonin transporter [3]) is reported as “Negativee”.

For `O=c1[nH]oc2c1CCNC2` [THIP, 4,5,6,7Tetrahydroisoxazolo[5,4c]pyridin3(2H)one], the Ki (GABAA receptor) is listed as 25.1 nM.

For `c1cc2c(cc1C1CCCCC1)c1c3n2CCNC3CCC1` (stereo not shown) [Tetrindole Mesylate], the IC50 (Monoamine Oxidase A) is given as 46 nM.

In the case of `CCCC(=CC(N)C(=O)O)CP(=O)(O)O` (stereo not shown) [[^3 H]-CGP 39653], the Kd ([5]; radioligand, read-out: KD (binding affinity)) is listed as 7 nM.

In the case of `CC(C)OC(=O)[C@H]1[C@@H](c2ccc([125I])cc2)C[C@@H]2CC[C@H]1N2C` [[^125 I]-RTI-121], the Kd (serotonin transporter [1]; radioligand) is listed as 1.1 nM.

For `CN(C)CCCN1c2ccccc2CCc2ccccc21` [imipramine], the “down-regulation of β-adrenergic receptors” value (β-adrenergic receptors) is listed as 25%.

For `Cc1cc(O)c2c(=O)c3c(O)cc(O)c4c5c(O)cc(O)c6c(=O)c7c(O)cc(CO)c8c1c2c(c34)c(c65)c78` [pseudohypericin], the “activity against murine cytomegalovirus” value (murine cytomegalovirus) is given as “Activity has also been reported”, the “inhibition of herpes simplex” value (herpes simplex) is given as “inhibit” and the “inhibition of HIV-1” value [8] is given as “inhibit”. The “activity against equine infectious anemia virus” value [9] was “Activity has also been reported”, the “protein kinase C IC50” value (protein kinase C) was 15 µg/mL and the “activity against Sindbis virus” value (Sindbis virus) was “Activity has also been reported”. The stability in solution (stability) was “unstable in solution”.
